The text below walks through data of publication PMC12094946, “Evidence of focusing the MHC class I immunopeptidome by tapasin” (Frontiers in Immunology, 2025).

In the first experiment the target is HLA-B*44:02 (Homo sapiens, UniProt P01889, A223V/A65T/A93T/A95T/D201E/D98Y/E176V/E187L/E204Q/E69K/G107R/H137Y/K202T/L105A/L119I/N104T/N87E/Q56L/Q94N/R106L/R155S/R180D/S101N/S121R/S35A/S48T/T118I/V36M/W191S/Y140D/Y91S). As to the kind of experiment: Immunopeptidome analysis (W6/32 isolation, LC-MS/MS) of 721.220 cells reconstituted with human tapasin. Particulars: sheet Overlaps; 1/0 flag; 5% peptide FDR. The format is cell-based. The method, then: (§1) Approximately 5x10^8 cells were grown for each cell line, and cell pellets were snap frozen. Cell lysis and MHC-I peptide isolation were performed as previously described in detail ([30]). Briefly, cell pellets were lysed by cryomilling and incubation in a non-denaturing lysis buffer (0.5% Igepal CA-630, 50 mM Tris pH 8.0, 150 mM NaCl, 1 x Roche Complete protease inhibitor cocktail). MHC-I complexes were captured from the lysate using 7.5 mg of anti-MHC-I antibody, W6/32, immobilized on protein A Sepharose and subsequently dissociated with 10% acetic acid. The peptides were fractionated and separated from β2m and heavy chain components by reversed-phase high performance liquid chromatography (RP-HPLC). The peptide containing fractions were concentrated and chromatographically distant fractions were combined to generate nine pools, reconstituted in 15 µL 0.1% formic acid containing 500 fmol iRT reference peptides ([31]). Pools were analyzed by liquid chromatography-tandem mass spectrometry (LC-MS/MS) using a SCIEX 5600+ mass spectrometer, equipped with a NanoUltra cHiPLC system (Eksigent) and a Nanospray III ion source. Peptides were trapped on a cHiPLC trap column (3 µm, ChromXP C18CL, 120 Å, 0.5 mm x 200 µm), by loading at 5 µL/min in 0.1% formic acid, 2% acetonitrile, prior to elution over a cHiPLC column (3 µm, ChromXP C18CL, 120 Å, 15 cm x 75 µm) at 300 nL/min with increasing acetonitrile over 75 minutes. The mass spectrometer was operated as follows: ion spray voltage 2400 V, curtain gas 25 l/min, ion source gas 20 l/min, interface heater temperature 150°C, MS1 range 200-1800, MS1 accumulation time 200 ms, MS2 range 60-1800, and MS2 accumulation time 150 ms. The top 20 ions meeting the following criteria were selected for MS/MS fragmentation with rolling collision energy: >200 Da, charge state +2 to +5, >40 cps, dynamic exclusion 30 seconds after two occurrences. Mass spectra were interpreted by database search against the Uniprot/SwissProt ([32]) reviewed human proteome accessed October 2018 using PEAKS Studio XPRO (10.6 build, Bioinformatics Solutions Inc.) and a contaminant database contain the iRT reference peptide sequences using the following parameters: Instrument Triple TOF, fragmentation CID, parent mass error tolerance 25ppm, fragment mass error tolerance 0.1Da, enzyme none, digest mode unspecific, variable modifications Oxidation (M) +15.99 and Deamidation (NQ) +0.98, max variable modifications per peptide 3, False discovery rate (FDR) estimation enabled. A 5% peptide FDR was applied. Peptides identified from similar isolations of MHC class II from closely related 721.221 derived cell lines were excluded from downstream analyses.
On to “AEDALHNLDRKW [peptide identified within the immunopeptidomes]”, for which the “B4402 (peptide identified in immunopeptidome)” value is 1.
The same measure, in the same setting: for “EEVDLSKDIQHW [peptide identified within the immunopeptidomes]” the value was 1; for “SELALESQTKTY [peptide identified within the HLA-B*44:02 immunopeptidome]”, 1; for “AEMDGAAAAKQVM [peptide identified within the immunopeptidomes]”, 1.
Same read-out and setting: for “AEIGEGAYGKVF [peptide identified within the immunopeptidomes]” the value was 1.

A further experiment addresses HLA-B*44:05 (Homo sapiens, UniProt P01889, A223V/A65T/A93T/A95T/D201E/D98Y/E176V/E187L/E204Q/E69K/G107R/H137Y/K202T/L105A/L119I/N104T/N87E/Q56L/Q94N/R106L/R155S/R180D/S101N/S121R/S35A/S48T/T118I/V36M/W191S/Y91S). Described as above. The format is cell-based. The conditions noted are these: sheet Overlaps; 1/0 flag; 5% peptide FDR. The method, then: as §1
Take “AEDALHNLDRKW [peptide identified within the immunopeptidomes]”: the “B4405 (peptide identified in immunopeptidome)” value was 1.
The same measure, in the same setting: for “EEVDLSKDIQHW [peptide identified within the immunopeptidomes]” the value was 1; for “SELALESQTKTY [peptide identified within the HLA-B*44:02 immunopeptidome]”, 0; for “AEMDGAAAAKQVM [peptide identified within the immunopeptidomes]”, 1.
On the same count and under the same terms, for “AEIGEGAYGKVF [peptide identified within the immunopeptidomes]” the value was 1.

A further experiment relates to HLA-B*44:05-W147A. The description is as above. The format is cell-based. Particulars: sheet Overlaps; 1/0 flag; 5% peptide FDR. As to the method:
as §1
In the case of “AEDALHNLDRKW [peptide identified within the immunopeptidomes]”, the “B4405 W147A (peptide identified in immunopeptidome)” value was found to be 0.
On the same count and under the same terms, for “EEVDLSKDIQHW [peptide identified within the immunopeptidomes]” the value was 0; for “SELALESQTKTY [peptide identified within the HLA-B*44:02 immunopeptidome]”, 0; for “AEMDGAAAAKQVM [peptide identified within the immunopeptidomes]”, 0.
On to “AEIGEGAYGKVF [peptide identified within the immunopeptidomes]”, for which the “B4405 W147A (peptide identified in immunopeptidome)” value was found to be 0.

The next experiment addresses HLA-A*02:01-fos (Homo sapiens, UniProt P04439, D140Y/D185E/D98H/E176V/E277Q/G131W/G231S/I119V/I121R/I166T/I218V/L300P/L318F/N151K/N90K/P208A/P217A/Q86G/Q94H/R138H/R169H/T345S). As to the kind of experiment: In vitro peptide competition experiments (fluorescence polarization). Particulars: index peptide IC50 compared with IC50 of unlabeled FLPSDCFPSV
A general note: In fluorescence polarisation assays a small probe gives low polarisation when free and higher when bound to something large.
Description: Peptide competition experiments were prepared in PBS supplemented with 0.5 mg/ml bovine serum albumin (BSA) and a final concentration of 1.67% DMSO. The indicated concentrations of MHC-I molecules were supplemented with 20x excess β2-microglobulin and exposed to 366 nm light for 20 minutes at 4°C. Twenty µl of the UV exposed proteins were added to a 96 well microplate, with each well containing 40 µl of a titration (0 - 83.33 µM) of an unlabeled peptide competitor, 2–3 nM of the appropriate TAMRA labelled peptide, and 300 nM tapasin-jun-ERp57 (HLA-B*44 and HLA-B*35 experiments), or 300 nM TAPBPR (HLA-A*02:01 experiments) or neither tapasin-jun-ERp57 or TAPBPR. Samples were prepared in duplicate and incubated overnight at 25°C.
HLA-B*44:05 and HLA-B*44:05-W147A proteins were used at 160 nM with 2 nM EEFGK*AFSF peptide. HLA-B*35:01-fos and HLA-B*35:03-fos proteins were used at 225 nM with 3 nM YPLK*EQHGM peptide.
Fluorescence polarization measurements were taken using an I3x (Molecular Devices) with rhodamine detection cartridge.
Take FLPSDC^TAMRAFPSV: the “fold lower than unlabeled FLPSDCFPSV” value is “approximately 20 fold”.

The experiment is the same for the next values; noted with them: suggested by the divergent effects of TAPBPR on the ability of peptides to compete for binding to HLA-A*02:01.
Turning to FLPSDC^TAMRAFPSV, the “IC50 value of the index peptide” value is recorded as “around 3 µM”.
